Data reported in US5089623A, “Certain imidate insecticides” (Imperial Chemical Industries Plc, priority 1990, dated 1992).

Assays:
Format in all cases: in vivo
[1] = test system: Maize weevil [Sitophilus Zeamais (Motschulsky)]; assay: Maize weevil test (MW); settings: adult weevils, treated corn seeds, 48 hours, percent in solution
Procedure, shortened: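 Adult weevils (10) were placed with four corn seeds that had been dipped 2-3 s in compound dissolved in 50:50 acetone:water, then dried, and held at about 25° C. Mortality was scored at 48 h. LC50 was taken from dosage-mortality curves and expressed as percent compound in solution, from a 0.01% top concentration.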

[2] = test system: Tobacco Budworm [Heliothis virescens (Fabricius)] eggs; assay: Tobacco budworm egg test (TBW-E); settings: percent in solution
[3] = test system: Cabbage Looper [Trichoplusia ni (Hubner)]; assay: Cabbage looper test (CL); settings: second-instar larvae, 3-5 days, percent in solution
[4] = test system: Aster Leafhopper [Macrosteles fascifrens (Stal)]; assay: Aster leafhopper test (LH); settings: adults/nymphs, 48 hours, percent in solution
[5] = test system: Housefly [Musca domestica]; assay: Housefly insecticidal test (HF); settings: per 25 female houseflies, 48 hours

| Structure (SMILES) | LC50 MW [1] | LC50 TBW E [2] | LC50 CL [3] | LC50 LH [4] | LC50 HF [5] |
| --- | --- | --- | --- | --- | --- |
| CC(C)C(=Nc1ccc(F)c(Cl)c1)OCc1cccc(Oc2ccc(Br)cc2)n1 [Compound 492] | > 0.01% | 0.015% | 0.00028% | > 0.05% | 15 µg |
| CC(C)C(=Nc1ccc(F)c(Cl)c1)OCc1cccc(OCc2ccc(F)cc2)c1 [Compound 490] | > 0.01% | > 0.1% | 0.0045% | > 0.05% | > 100 µg |
| CC(C)C(=Nc1ccc(F)c(Cl)c1)OCc1cc(Oc2ccc(Cl)cc2)ccn1 [Compound 516] | > 0.01% | > 0.1% | 0.008% | > 0.05% | > 100 µg |
| CC(C)(F)C(=Nc1ccc(F)c(Cl)c1)OCc1cccc(Oc2ccc(F)cc2F)c1 [Compound 315] | > 0.01% | > 0.1% | 0.002% | > 0.05% | > 100 µg |
| c1ccc(Oc2cccc(COC(=Nc3ccc4c(c3)OCO4)C3CC3)c2)cc1 [Compound 177] | 0.01% | > 0.1% | 0.002% | > 0.05% | 13 µg |
| C#CC(OC(=Nc1cccc(C(F)(F)F)c1)C(C)C)c1cccc(Oc2ccccc2)c1 (stereo not shown) [Compound 519] | > 0.01% | > 0.1% | 0.0037% | > 0.05% | 60 µg |
| CC(C)C(=Nc1ccc(Cl)c(Cl)c1)OCc1cccc(Nc2ccc(F)cc2)c1 [Compound 514] | > 0.01% | > 0.1% | 0.008% | > 0.05% | > 100 µg |
| COC(=O)c1ccc(N=C(OCc2cccc(Oc3ccccc3)c2)C(C)C)cc1 [Compound 151] | > 0.01% | > 0.1% | 0.009% | > 0.05% | 38 µg |
| N#CC(=Nc1ccc(Cl)cc1)OCc1cccc(Oc2ccccc2)c1 [Compound 21] | > 0.01% | > 0.1% | 0.02% | > 0.05% | 7 µg |
| CC(C)C(=Nc1ccccc1Br)OCc1cccc(Oc2ccccc2)c1 [Compound 132] | > 0.01% | > 0.1% | 0.025% | > 0.05% | 65 µg |
| CC(C)C(=Nc1ccc2c(c1)OCO2)OCc1ccc(F)c(Oc2ccc(Cl)cc2)c1 [Compound 366] | > 0.01% | 0.012% | 0.0007% | 0.05% | < 100 µg |
| CC(C)C(=Nc1ccc(F)c(Cl)c1)OCC#CCOc1ccccc1 [Compound 534] | > 0.01% | > 0.1% | < 0.1% | > 0.05% | > 100 µg |
| Fc1ccc(N=C(OCc2cccc(Oc3ccccc3)c2)C(F)(F)C(F)(F)F)cc1Cl [Compound 117] | > 0.01% | > 0.1% | 0.006% | 0.0003% | 55 µg |
| CC(C)C(=Nc1ccc(C(F)(F)F)cc1)OCc1cccc(Oc2ccc(Cl)cc2)c1 [Compound 365] | > 0.01% | 0.038% | 0.00025% | < 0.05% | > 100 µg |
| CC(C)C(=Nc1cccc(C(F)(F)F)c1)OCc1ccnc(Oc2ccc(Cl)cc2)c1 [Compound 517] | > 0.01% | 0.04% | 0.0008% | > 0.05% | 80 µg |
| CC(C)C(=Nc1ccc(C(F)(F)F)cc1)OCc1cccc(Cc2ccccc2)c1 [Compound 543] | > 0.01% | > 0.1% | 0.0008% | < 0.05% | < 100 µg |
| CCC(=Nc1ccc(Cl)cc1)OCc1cccc(Oc2ccccc2)c1 [Compound 11] | > 0.01% | > 0.1% | 0.025% | > 0.05% | 6 µg |
| Cc1ccc(N=C(OCc2ccc(F)c(Oc3ccccc3)c2)C(C)C)cc1Cl [Compound 356] | > 0.01% | 0.025% | > 0.1% | < 0.05% | < 100 µg |
| CC(C)C(=Nc1cccc(C(F)(F)F)c1)OCc1cccc(Oc2ccc(Cl)cn2)c1 [Compound 518] | > 0.01% | > 0.1% | 0.00075% | > 0.05% | > 100 µg |
| COCc1c(F)c(F)c(COC(=Nc2ccc(C(C)(C)C)cc2)C(C)C)c(F)c1F [Compound 544] | > 0.01% | > 0.1% | > 0.1% | > 0.05% | > 100 µg |
| CC(C)C(=Nc1ccc2c(c1)OCO2)OCc1cc(Oc2ccc(F)cc2)ccn1 [Compound 515] | > 0.01% | > 0.1% | 0.0015% | > 0.05% | 28 µg |
| CC(C)C(=Nc1ccc(F)c(Cl)c1)OCc1cc(Oc2ccc(F)cc2)ccn1 [Compound 529] | > 0.01% | > 0.1% | > 0.0025% | > 0.05% | 27.7 µg |
| COc1ccc(N=C(OCc2ccc(F)c(Oc3ccc(F)cc3)c2)C(C)C)cc1OC [Compound 363] | > 0.01% | > 0.1% | > 0.1% | > 0.05% | < 100 µg |
| CC(C)C(=Nc1ccc(F)c([N+](=O)[O-])c1)OCc1cccc(Oc2ccccc2)c1 [Compound 293] | > 0.01% | > 0.1% | 0.0045% | > 0.05% | 19 µg |
| C#CC(OC(=Nc1ccc(F)c(Cl)c1)C(C)C)c1cccc(Oc2ccccc2)c1 (stereo not shown) [Compound 533, N-(3-chloro-4-fluorophenyl)-O-[1-(3-phenoxyphenyl)-2-propyn-1-yl]isobutyrimidate] | > 0.01% | > 0.1% | > 0.1% | > 0.05% | 60 µg |
| CC(C)C(=Nc1ccc(-c2ccccc2)cc1)OCc1cccc(Oc2ccccc2)c1 [Compound 186] | > 0.01% | > 0.1% | 0.008% | > 0.05% | > 100 µg |
| CC(C)C(=Nc1ccc(Cl)c(C(F)(F)F)c1)OCc1cccc(Oc2ccc(F)cc2)c1 [Compound 193] | > 0.01% | > 0.1% | 0.00075% | 0.001% | 100 µg |
| CC1(C)C(C(=Nc2ccc(F)c(Cl)c2)OCc2cccc(Oc3ccccc3)c2)C1(C)C [Compound 124] | > 0.01% | > 0.1% | 0.01% | > 0.05% | 17 µg |
| CC(C)C(=Nc1ccc(F)cc1)OCc1cccc(Oc2ccc(Br)cc2)c1 [Compound 259] | > 0.01% | 0.05% | 0.0003% | > 0.05% | 15 µg |
